Experimental data taken from US20080214807A1, “Substituted Spiro Compounds and their Use for Producing Drugs” (Gruenenthal GmbH, priority 2005, published 2008).

Key:
[1] = target: T1, rat-species vanilloid receptor 1 (VR1/TRPV1) (Rattus norvegicus, UniProt O35433); assay: Functional testing on vanilloid receptor 1 (VR1/TRPV1), FLIPR Ca2+ inflow assay in rat dorsal root ganglia cells; assay type: cell-based; conditions: test compound 10 μM; for inhibition at 10 µM / VR1 (rat) (% inhibition compared to 10 μM CP): 5 min incubation, then 100 nM capsaicin, relative to maximum achievable inhibition with 10 μM capsaicin; for inhibition at 10 µM: read-out: VR1 (rat) (% inhibition compared to 10 μM CP); for activation at 10 µM / VR1 (rat) (% stimulation compared to 10 μM CP): Ca2+ inflow relative to signal of 10 μM capsaicin (CP); for activation at 10 µM: read-out: VR1 (rat) (% stimulation compared to 10 μM CP)
T1 construct: endogenous in cells; host or cells: primary cultured rat dorsal root ganglion cells
T1 sequence (O35433 whole entry): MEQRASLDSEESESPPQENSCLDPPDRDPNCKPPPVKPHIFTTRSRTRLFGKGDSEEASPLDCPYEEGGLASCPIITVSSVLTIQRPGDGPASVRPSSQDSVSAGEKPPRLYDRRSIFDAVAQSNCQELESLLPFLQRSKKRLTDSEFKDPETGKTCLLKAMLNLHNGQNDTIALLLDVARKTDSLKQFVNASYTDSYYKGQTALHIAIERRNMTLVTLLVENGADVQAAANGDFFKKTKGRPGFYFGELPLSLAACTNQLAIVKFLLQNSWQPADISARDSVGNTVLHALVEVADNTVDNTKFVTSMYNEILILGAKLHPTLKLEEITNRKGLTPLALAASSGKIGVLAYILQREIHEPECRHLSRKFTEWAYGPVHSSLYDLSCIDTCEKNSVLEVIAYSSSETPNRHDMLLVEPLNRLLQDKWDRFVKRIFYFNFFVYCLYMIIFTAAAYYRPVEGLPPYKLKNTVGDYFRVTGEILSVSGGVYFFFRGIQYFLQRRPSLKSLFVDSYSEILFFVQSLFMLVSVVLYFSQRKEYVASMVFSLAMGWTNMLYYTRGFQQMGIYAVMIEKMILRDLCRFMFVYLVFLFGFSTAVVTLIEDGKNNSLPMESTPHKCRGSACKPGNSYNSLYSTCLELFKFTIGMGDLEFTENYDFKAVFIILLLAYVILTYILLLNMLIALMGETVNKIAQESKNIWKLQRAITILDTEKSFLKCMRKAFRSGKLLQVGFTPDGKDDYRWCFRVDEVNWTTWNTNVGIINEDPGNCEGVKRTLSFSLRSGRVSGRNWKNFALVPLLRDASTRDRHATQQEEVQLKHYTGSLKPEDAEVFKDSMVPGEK
From the text: I. Functional Testing Carried out on the Vanilloid Receptor 1 (VRI/TRPV1 Receptor)
(§1) The agonistic or antagonistic effect of the substances to be tested can be determined on the rat-species vanilloid receptor 1 (VR1/TRPV1) using the following assay. According to this assay, the Ca^2+ inflow is quantified through the receptor channel using a Ca^2+-sensitive dye (type Fluo-4, Molecular Probes Europe BV, Leiden, Netherlands) in a fluorescent imaging plate reader (FLIPR, Molecular Devices, Sunnyvale, USA).
Complete medium: 50 mL HAMS F12 nutrient mixture (Gibco Invitrogen GmbH, Karlsruhe, Germany) with
10% by volume of FCS (foetal calf serum, Gibco Invitrogen GmbH, Karlsruhe, Germany, […]);
2 mM L-glutamine (Sigma, Munich, Germany);
1% by weight of AA solution (antibiotic/antimyotic solution, PAA, Pasching, Austria) and 25 ng/ml NGF medium (2.5 S, Gibco Invitrogen GmbH, Karlsruhe, Germany)
Cell culture plate: Poly-D-lysine-coated, black 96 well plates having a clear base (96 well black/clear plate, BD Biosciences, Heidelberg, Germany) were additionally coated with laminin (Gibco Invitrogen GmbH, Karlsruhe, Germany), the laminin being diluted with PBS (Ca—Mg-free PBS, Gibco Invitrogen GmbH, Karlsruhe, Germany) to a concentration of 100 μg/mL. Aliquots having a laminin concentration of 100 μg/mL were removed and stored at −20° C. The aliquots were diluted with PBS in a ratio of 1:10 to 10 μg/mL laminin and in each case 50 μL of the solution were pipetted into a recess in the cell culture plate. The cell culture plates were incubated for at least two hours at 37° C., the excess solution was removed by suction-filtration and the recesses were each washed twice with PBS. The coated cell culture plates were stored with excess PBS which was not removed until just before the feeding of the cells.
Preparation of the Cells:
The vertebral column was removed from decapitated rats and placed immediately into cold HBSS buffer (Hank's buffered saline solution, Gibco Invitrogen GmbH, Karlsruhe, Germany), i.e. buffer located in an ice bath, mixed with 1% by volume (percent by volume) of an AA solution (antibiotic/antimyotic solution, PAA, Pasching, Austria). The vertebral column was cut longitudinally and removed together with fasciae from the vertebral canal. Subsequently, the dorsal root ganglia (DRG) were removed and again stored in cold HBSS buffer mixed with 1% by volume of an AA solution. The DRG, from which all blood remnants and spinal nerves had been removed, were transferred in each case to 500 μL of cold type 2 collagenase (PAA, Pasching, Austria) and incubated for 35 minutes at 37° C. After the addition of 2.5% by volume of trypsin (PAA, Pasching, Austria), incubation was continued for 10 minutes at 37° C. After complete incubation, the enzyme solution was carefully pipetted off and 500 μL of complete medium were added to each of the remaining DRG. The DRG were in each case suspended several times, drawn through cannulae No. 1, No. 12 and No. 16 using a syringe and transferred to a 50 mL Falcon tube which was filled up to 15 mL with complete medium. The contents of each Falcon tube was in each case filtered through a 70 μm Falcon filter element and centrifuged for 10 minutes at 1,200 rpm and room temperature. The resulting pellet was in each case taken up in 250 μL of complete medium and the number of cells determined.
The number of cells in the suspension was set to 3×10^5 per mL and 150 μL of this suspension were in each case introduced into a recess in the cell culture plates coated as described hereinbefore. In the incubator the plates were left for two to three days at 37° C., 5% by volume of CO2 and 95% relative humidity. […]

VR1 (human) = target: T2, VR1 (human) (Homo sapiens, UniProt Q8NER1); assay: Functional testing on vanilloid receptor VR1, FLIPR Ca2+ inflow assay (CHO K1 cells stably transfected with the VR1 gene); assay type: cell-based; conditions: test compound 10 μM; for inhibition at 10 µM / activation at 10 µM: CHO-K1; for inhibition at 10 µM / VR1 (human) (% inhibition compared to 10 μM CP): 5 min incubation, then 100 nM capsaicin, relative to maximum achievable inhibition with 10 μM capsaicin; for inhibition at 10 µM: read-out: VR1 (human) (% inhibition compared to 10 μM CP); for activation at 10 µM / VR1 (human) (% stimulation compared to 10 μM CP): Ca2+ inflow relative to signal of 10 μM capsaicin (CP); for activation at 10 µM: read-out: VR1 (human) (% stimulation compared to 10 μM CP)
T2 construct: expressed in transfected cells; host or cells: CHO K1 cells (ECACC)
T2 sequence (Q8NER1 whole entry): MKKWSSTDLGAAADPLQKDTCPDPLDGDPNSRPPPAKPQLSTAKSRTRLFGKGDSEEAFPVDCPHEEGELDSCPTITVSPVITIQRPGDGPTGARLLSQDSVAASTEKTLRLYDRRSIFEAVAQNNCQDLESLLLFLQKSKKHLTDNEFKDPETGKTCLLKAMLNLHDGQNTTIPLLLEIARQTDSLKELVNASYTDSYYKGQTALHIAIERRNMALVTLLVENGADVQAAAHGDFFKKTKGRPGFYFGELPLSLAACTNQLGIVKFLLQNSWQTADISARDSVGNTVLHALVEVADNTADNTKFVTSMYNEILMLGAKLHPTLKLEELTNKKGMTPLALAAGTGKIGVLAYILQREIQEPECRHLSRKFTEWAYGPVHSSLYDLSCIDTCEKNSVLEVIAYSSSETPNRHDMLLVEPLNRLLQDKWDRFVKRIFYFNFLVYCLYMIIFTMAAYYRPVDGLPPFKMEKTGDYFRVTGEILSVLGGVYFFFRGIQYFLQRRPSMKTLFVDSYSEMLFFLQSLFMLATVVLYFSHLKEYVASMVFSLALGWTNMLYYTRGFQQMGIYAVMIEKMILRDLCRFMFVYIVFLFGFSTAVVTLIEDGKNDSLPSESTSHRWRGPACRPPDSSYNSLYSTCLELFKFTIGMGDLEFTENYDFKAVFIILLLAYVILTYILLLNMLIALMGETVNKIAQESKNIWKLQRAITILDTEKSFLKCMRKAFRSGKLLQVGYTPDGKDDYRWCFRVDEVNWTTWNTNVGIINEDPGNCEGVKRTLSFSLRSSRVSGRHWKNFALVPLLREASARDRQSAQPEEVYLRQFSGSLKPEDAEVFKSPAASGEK
From the text: II. Functional Testing Carried out on the Vanilloid Receptor (VR1)
as §1, with “can also” for “can”, “the” for “the rat-species”, “(VR1)” for “1 (VR1/TRPV1)”, “the” for “the receptor”
Chinese hamster ovary cells (CHO K1 cells, European Collection of Cell Cultures (ECACC) United Kingdom) were stably transfected with the VR1 gene. For functional testing, these cells were plated out on poly-D-lysine-coated black 96 well plates having a clear base (BD Biosciences, Heidelberg, Germany) at a density of 25,000 cells/well. The cells were incubated overnight at 37° C. and 5% CO2 in a culture medium (Ham's F12 nutrient mixture, 10-% by volume of FCS (foetal calf serum), 18 μg/ml L-proline). The next day the cells were incubated with Fluo-4 (Fluo-4 2 μM, 0.01% by volume of Pluronic F127, Molecular Probes in HBSS (Hank's buffered saline solution), Gibco Invitrogen GmbH, Karlsruhe, Germany) for 30 minutes at 37° C. Subsequently, the plates were washed 3 times with HBSS buffer and after further incubation for 15 minutes at room temperature used for Ca^2+ measurement in a FLI PR assay. The Ca^2+-dependent fluorescence was measured before and after the addition of the substances to be tested (λex wavelength=488 nm, λem=540 nm). Quantification was carried out by measuring the highest fluorescence intensity (FC, Fluorescence Counts) over time.
The FLIPR protocol consists of 2 substance additions. First the compounds to be tested (10 μM) were pipetted onto the cells and the Ca^2+ inflow was compared with the control (capsaicin 10 μM) (% activation based on the Ca^2+ signal after the addition of 10 μM capsaicin). After 5 minutes' incubation, 100 nM of capsaicin were administered and the Ca^2+ inflow was also determined.
Desensitising agonists and antagonists led to suppression of the Ca^2+ inflow. The % inhibition was calculated compared to the maximum achievable inhibition with 10 μM of capsaicin.

Structure (SMILES)	inhibition at 10 µM [1] [%]	activation at 10 µM [1] [%]	inhibition at 10 µM (VR1 (human)) [%]	activation at 10 µM (VR1 (human)) [%]	VR1 (rat) (% inhibition compared to 10 μM CP) [1] [%]	VR1 (rat) (% stimulation compared to 10 μM CP) [1] [%]	VR1 (human) (% inhibition compared to 10 μM CP) (VR1 (human)) [%]	VR1 (human) (% stimulation compared to 10 μM CP) (VR1 (human)) [%]
CC(C)(C)c1ccc(NC(=O)N2CCC3(CC2)CC(C(=O)N2CCN(c4ncccc4C(F)(F)F)CC2)=NO3)cc1 [Example 228, 3-[4-(3-trifluoromethylpyridin-2-yl)piperazine-1-carbonyl]-1-oxa-2,8-diazaspiro[4.5]dec-2-ene-8-carboxylic acid-(4-tert-butylphenyl)amide]	100	17.2	48.1	7.07				
COc1ccc(CNC(=O)C2=NOC3(CCN(C(=O)Nc4ccc(C(F)(F)F)cc4)CC3)C2)cc1OC [Example 70, 1-oxa-2,8-diazaspiro[4.5]dec-2-ene-3,8-dicarboxylic acid-3-(3,4-dimethoxybenzylamide)-8-[(4-trifluoromethylphenyl)amide]]					67.41	0.35	−0.43	−0.18
O=C(Nc1ccc(Cl)cn1)C1=NOC2(CCN(C(=O)Nc3ccccc3Cl)CC2)C1 [Example 9, 1-oxa-2,8-diazaspiro[4.5]dec-2-ene-3,8-dicarboxylic acid-8-[(2-chlorophenyl)amide]-3-[(5-chloropyridin-2-yl)amide]]					45.63	0.23	26.23	−0.48
O=C(Nc1ccc(S(F)(F)(F)(F)F)cc1)N1CCC2(CC1)CC(C(=O)N1CCN(c3ncccc3Cl)CC1)=NO2 [Example 229, 3-[4-(3-chloropyridin-2-yl)piperazine-1-carbonyl]-1-oxa-2,8-diazaspiro[4.5]dec-2-ene-8-carboxylic acid-(4-pentafluorosulphanylphenyl)amide]	94	45	37	10				
O=C(Nc1ccc(Cl)cc1)N1CCC2(CC1)CC(C(=O)N1CCN(c3ncccc3Cl)CC1)=NO2 [Example 51, 3-[4-(3-chloropyridin-2-yl)piperazine-1-carbonyl]-1-oxa-2,8-diazaspiro[4.5]dec-2-ene-8-carboxylic acid-(4-chlorophenyl)amide]	98.8	18.6	63.4	13.2				
CC(C)c1ccccc1NC(=O)N1CCC2(CC1)CC(C(=O)N1CCN(c3ncccc3Cl)CC1)=NO2 [Example 61, 3-[4-(3-chloropyridin-2-yl)piperazine-1-carbonyl]-1-oxa-2,8-diazaspiro[4.5]dec-2-ene-8-carboxylic acid-(2-isopropylphenyl)amide]	47	0.47	-15.1	0.08				
CSc1ccc(NC(=O)N2CCC3(CC2)CC(C(=O)N2CCN(c4ncccc4Cl)CC2)=NO3)cc1 [Example 58, 3-[4-(3-chloropyridin-2-yl)piperazine-1-carbonyl]-1-oxa-2,8-diazaspiro[4.5]dec-2-ene-8-carboxylic acid-(4-methylsulphanylphenyl)amide]	72.5	19.5	84.9	72.9				
O=C(Nc1ccc(OC(F)(F)F)cc1)N1CCC2(CC1)CC(C(=O)N1CCN(c3ncccc3Cl)CC1)=NO2 [Example 34, 3-[4-(3-chloropyridin-2-yl)piperazine-1-carbonyl]-1-oxa-2,8-diazaspiro[4.5]dec-2-ene-8-carboxylic acid-(4-trifluoromethoxyphenyl)amide]	86.2	6.21	51.9	-0.13				
COc1cccc(NC(=O)N2CCC3(CC2)CC(C(=O)NCc2ccc(OC)c(OC)c2)=NO3)c1 [Example 16, 1-oxa-2,8-diazaspiro[4.5]dec-2-ene-3,8-dicarboxylic acid-3-(3,4-dimethoxybenzylamide)-8-[(3-methoxyphenyl)amide]]					8.65	0.00	0.77	0.40
CC(C)c1ccc(NC(=O)N2CCC3(CC2)CC(C(=O)N2CCN(c4ncccc4Cl)CC2)=NO3)cc1 [Example 63, 3-[4-(3-chloropyridin-2-yl)piperazine-1-carbonyl]-1-oxa-2,8-diazaspiro[4.5]dec-2-ene-8-carboxylic acid-(4-isopropylphenyl)amide]	78.9	24.5	15.8	2.59				
O=C(Nc1ccc(C(F)(F)F)cc1)N1CCC2(CC1)CC(C(=O)N1CCN(c3ncccc3Cl)CC1)=NO2 [Example 71, 3-[4-(3-chloropyridin-2-yl)piperazine-1-carbonyl]-1-oxa-2,8-diazaspiro[4.5]dec-2-ene-8-carboxylic acid-(4-trifluoromethylphenyl)amide]	57.2	31.2	42	34.7				
O=C(Nc1cc(C(F)(F)F)ccc1Cl)N1CCC2(CC1)CC(C(=O)N1CCN(c3ncccc3Cl)CC1)=NO2 [Example 22, 3-[4-(3-chloropyridin-2-yl)piperazine-1-carbonyl]-1-oxa-2,8-diazaspiro[4.5]dec-2-ene-8-carboxylic acid-(2-chloro-5-trifluoromethylphenyl)amide]	43.3	2.79	8.37	-0.66				
